Reference: patent US20200131473A1, “METHOD OF GENERATING 2 CELL-LIKE STEM CELLS” (IFOM FONDAZIONE ISTITUTO FIRC DI ONCOLOGIA MOLECOLARE, priority 2017, published 2020)

What was measured:
[1] = test system: morula stage mouse embryos; assay: qPCR for 2C-embryo specific genes in APH-treated morula-stage mouse embryos; format: cell-based
Experimental: (§1) RNA was extracted using RNeasy mini kit (QIAGEN), quantified by NanoDrop spectrophotometer and cDNA was prepared from 2 μg total DNA-depleted RNA using SuperScript™ III reverse transcriptase kit (Invitrogen cat #18080-093) following manufacturer's instructions. qPCR assay performed based on standard protocol using 10× SsoFast™ EvaGreen® Supermix or later 1× LightCycler 480 SYBR Green I Master (Roche, 04707516001), 0.5 μM primer mix and 5 ng of cDNA. GAPDH was used as internal control to normalise the qPCR data following ΔΔCt method, 10 μM primer mix and a total amount of cDNA corresponding to 5 ng of starting RNA for each reaction.
Cryopreserved C57BL/6N morulae purchased from Janvier Labs (QUICKBLASTO®), were thawed according to the manufacturer's protocol. After recovery, a group of healthy morulae were treated with APH at final concentration of 1.5 μM in KSOM culture medium for 4 hrs while the rest were kept as control. The day after, the same number of morphologically healthy and synchronized blastocysts (22 and 7 blastocysts in the 1st and 2nd round, respectively) were selected from both groups. […] As the quantity of isolated RNA is not detectable by NanoDrop spectrophotometer, the supernatant was directly used for cDNA preparation following centrifugation at 10621 g for 2 minutes. cDNA preparation and qPCR were performed following the aforementioned protocols. […]

[2] = test system: Nanog, Pou5f1 (Oct4), Sox2; assay: Immunostaining and qPCR for canonical pluripotency markers in ESCs; format: cell-based, mouse; conditions: upon APH treatment
Experimental: RNA was extracted using RNeasy mini kit (QIAGEN), quantified by NanoDrop spectrophotometer and cDNA was prepared from 2 μg total DNA-depleted RNA using SuperScript™ III reverse transcriptase kit (Invitrogen cat #18080-093) following manufacturer's instructions. qPCR assay performed based on standard protocol using […] SsoFast™ EvaGreen® Supermix or later 1× LightCycler 480 SYBR Green I Master (Roche, 04707516001), 0.5 μM primer mix and 5 ng of cDNA. GAPDH was used as internal control to normalise the qPCR data following ΔΔCt method, 10 μM primer mix and a total amount of cDNA corresponding to 5 ng of starting RNA for each reaction. […] Then, cells were incubated with primary antibody at 4° C. overnight, followed by washes and incubation with secondary antibody for an hour at room temperature. Next samples were mounted and images were acquired with wide field florescent microscope. Antibodies used in this study were Anti Oct-3/4 (Santa Cruz sc-5279), Anti Nanog (Abcam ab80892) and Plet-1 antibody (Nordic MUbio MUB1512P) and), Anti-GFP (Abcam, ab5450). Acquired figures were analyzed with ImageJ software.

[3] = test system: mouse embryonic fibroblast (MEF) lines; assay: qPCR for 2C-specific markers in MEF lines; format: cell-based; conditions: two MEF lines with distinct genetic backgrounds
Experimental: ESCs were grown in feeder free culture condition either with or without 0.1% gelatin coat and incubated in 37° C. and 3% 02 tension. ESC medium (high glucose DMEM (DMEM Media—GlutaMAX™-I, Gibco)), 15% ESC qualified FBS (HyClone™ Fetal Bovine Serum), 2 mM L-glutamine, 1/500 home-made leukemia inhibitory factor, 0.1 mM non-essential amino acids, 0.1 mM 2-bmercaptoethanol, 50 units/ml penicillin, […] streptomycin, 1 mM Sodium Pyruvate) supplemented with two inhibitors (2i from Axon medchem) that are PD 0325901; highly specific non-ATP-competitive inhibitor of MEK (aka MKK) 1/2 at final concentration of 1 uM and CHIR 99021; specific glycogen synthase kinase GSK-3 inhibitor at final concentration of 3 uM. MEF cells were cultured in MEF medium (high glucose DMEM (Lonza), 10% north America FBS, 2 mM L-glutamine, 0.1 mM non-essential amino acids, 50 units/ml penicillin, 1 mM Sodium Pyruvate and […] streptomycin).
as §1, with “GAPDH was used as internal control to normalise the qPCR data following ΔΔCt method, 10 μM primer mix and a total amount of cDNA corresponding to 5 ng of starting RNA for each reaction.” left out

ATR Seckel and WT ESCs = assay: In-vitro differentiation toward giant trophoblast-like cells; format: cell-based, mouse
Experimental: as §1
Then, cells were incubated with primary antibody at 4° C. overnight, followed by washes and incubation with secondary antibody for an hour at room temperature. Next samples were mounted and images were acquired with wide field florescent microscope. Antibodies used in this study were Anti Oct-3/4 (Santa Cruz sc-5279), Anti Nanog (Abcam ab80892) and Plet-1 antibody (Nordic MUbio MUB1512P) and), Anti-GFP (Abcam, ab5450). Acquired figures were analyzed with ImageJ software. […]

C[C@@]1(CO)[C@H](O)CC[C@@]2(C)[C@H]1CC[C@H]1C[C@@H]3C[C@@]12CC[C@]3(O)CO [APH, aphidicolin]
expression of 2C embryo specific markers Dux, MERVL and Gm4981 (qPCR) ([1]; morula-stage embryos treated with APH, blastocyst stage): activated the expression of several key 2C embryo specific markers | expression of 2C-embryo-specific genes Zscan4, Tcstv3, GM12794 and Eif1a (qPCR) ([1]; morula-stage embryos, APH 1.5 μM for 4 hrs, blastocysts analysed the day after): activate several key 2C-embryo-specific genes | Nanog, Pou5f1 (Oct4) protein in Zscan4 positive cells (immunostaining) [2]: mild downregulation | expression of pluripotency related genes at the transcriptional level ([2]; Sox2, Nanog, Pou5f1, Rex1): no significant alterations | expression of main 2C-specific markers such as MuERV-L in MEF lines [3]: do not alter | number of giant trophoblast-like cells (ATR Seckel and WT ESCs; APH treatment): more than three folds | giant trophoblast cell specific marker Prl2c2 (qPCR) in ATR activated condition (ATR Seckel and WT ESCs; wild type ESC treated with APH): highest expression
